From patent US20090018134A1, “Compounds - 945” (AstraZeneca AB, priority 2007, published 2009)
Like-named read-outs stand apart in the source and are kept apart here.

Molecular target: T1, mTOR (Homo sapiens, UniProt P42345)
T1 construct: FLAG; made in house
Test: In Vitro mTOR Kinase Assay (Echo), Test (a)(ii)
Format: biochemical
Method in brief: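 FLAG-tagged human mTOR truncation (residues 1362-2549) expressed in HEK293 cells and FLAG-purified. Compounds dispensed acoustically, reaction 2 h at room temperature, stopped with EDTA. Phosphorylation of biotinylated peptide detected by AlphaScreen with anti-p70 S6K (T389) antibody overnight; IC50 reported.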

[1] = read-out: mTOR Kinase Assay (Echo)
[2] = table of enzyme assay Test (a)(ii), read-out: Test (a)(ii) IC50

T1 sequence (P42345 1362-2549): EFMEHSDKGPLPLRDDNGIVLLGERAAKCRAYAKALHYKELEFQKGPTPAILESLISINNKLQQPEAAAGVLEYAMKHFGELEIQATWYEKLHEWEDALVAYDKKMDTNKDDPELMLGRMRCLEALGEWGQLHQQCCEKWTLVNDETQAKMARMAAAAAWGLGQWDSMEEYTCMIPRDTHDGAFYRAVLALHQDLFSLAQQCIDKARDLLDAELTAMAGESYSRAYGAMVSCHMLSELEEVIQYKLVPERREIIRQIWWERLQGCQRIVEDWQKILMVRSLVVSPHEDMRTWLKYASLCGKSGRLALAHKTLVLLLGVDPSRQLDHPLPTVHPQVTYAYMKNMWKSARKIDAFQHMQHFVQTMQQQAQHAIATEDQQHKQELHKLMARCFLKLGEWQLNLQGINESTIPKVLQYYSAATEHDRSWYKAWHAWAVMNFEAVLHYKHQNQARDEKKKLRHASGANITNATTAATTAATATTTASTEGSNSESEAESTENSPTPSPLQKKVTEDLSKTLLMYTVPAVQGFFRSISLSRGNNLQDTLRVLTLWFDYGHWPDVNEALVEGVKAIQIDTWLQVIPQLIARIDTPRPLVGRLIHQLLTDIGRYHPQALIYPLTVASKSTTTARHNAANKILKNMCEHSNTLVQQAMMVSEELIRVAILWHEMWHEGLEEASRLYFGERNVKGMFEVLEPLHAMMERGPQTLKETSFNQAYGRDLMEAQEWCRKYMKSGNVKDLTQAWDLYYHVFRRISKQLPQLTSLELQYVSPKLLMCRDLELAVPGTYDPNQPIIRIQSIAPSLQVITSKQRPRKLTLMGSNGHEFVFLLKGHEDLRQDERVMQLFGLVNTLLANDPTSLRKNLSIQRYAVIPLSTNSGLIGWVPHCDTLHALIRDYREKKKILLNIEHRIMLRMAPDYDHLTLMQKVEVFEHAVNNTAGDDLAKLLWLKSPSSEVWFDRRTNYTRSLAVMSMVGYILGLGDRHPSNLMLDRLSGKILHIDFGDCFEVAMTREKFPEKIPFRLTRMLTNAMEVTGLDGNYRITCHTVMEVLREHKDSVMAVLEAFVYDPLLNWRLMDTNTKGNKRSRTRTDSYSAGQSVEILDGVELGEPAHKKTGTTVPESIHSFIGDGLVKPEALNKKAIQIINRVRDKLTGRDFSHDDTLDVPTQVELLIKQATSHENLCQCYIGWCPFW

Row | IC50 [1] [nM] | IC50 [2] [nM] | Structure (SMILES)
1 | 12.9 | – | C[C@H]1COCCN1c1cc(C2(S(=O)(=O)C3CCCC3)CC2)nc(-c2ccc(NC(=O)NC3CCC3)cc2)n1 [Example 9a]
2 | 15.1 | – | CC(C)NC(=O)Nc1ccc(-c2nc(N3CCOC[C@@H]3C)cc(C3(S(=O)(=O)C4CCCC4)CC3)n2)cc1 [Example 9d]
3 | 1.87 | – | CCNC(=O)Nc1ccc(-c2nc(N3CCOC[C@@H]3C)cc(C3(S(=O)(=O)C4CCCC4)CC3)n2)cc1 [Example 9e]
4 | 5.7 | – | CCCNC(=O)Nc1ccc(-c2nc(N3CCOC[C@@H]3C)cc(C3(S(=O)(=O)C4CCCC4)CC3)n2)cc1 [Example 9h]
5 | 2.4 | – | CNC(=O)Nc1ccc(-c2nc(N3CCOC[C@@H]3C)cc(C3(S(=O)(=O)C4CCCC4)CC3)n2)cc1 [Example 9i]
6 | 11.5 | – | C[C@H]1COCCN1c1cc(C2(S(=O)(=O)C3CCCC3)CC2)nc(-c2ccc(NC(=O)NC(C)(C)CO)cc2)n1 [Example 9k]
7 | 4.48 | – | C[C@H]1COCCN1c1cc(C2(S(=O)(=O)c3ccccc3C(F)(F)F)CC2)nc(-c2ccc(NC(=O)NC3CC3)cc2)n1 [Example 10, 3-Cyclopropyl-1-[4-[4-[(3S)-3-methylmorpholin-4-yl]-6-[1-[2-(trifluoromethyl)phenyl]sulfonylcyclopropyl]pyrimidin-2-yl]phenyl]urea]
8 | 39.5 | – | C[C@H]1COCCN1c1cc(C2(S(=O)(=O)c3ccccc3C(F)(F)F)CC2)nc(-c2ccc(NC(=O)NC3CCC3)cc2)n1 [Example 10a, 3-cyclobutyl-1-[4-[4-[(3S)-3-methylmorpholin-4-yl]-6-[1-[2-(trifluoromethyl)phenyl]sulfonylcyclopropyl]pyrimidin-2-yl]phenyl]urea]
9 | 26.6 | – | C[C@H]1COCCN1c1cc(C2(S(=O)(=O)c3ccccc3C(F)(F)F)CC2)nc(-c2ccc(NC(=O)Nc3ccccn3)cc2)n1 [Example 10b, 1-[4-[4-[(3S)-3-methylmorpholin-4-yl]-6-[1-[2-(trifluoromethyl)phenyl]sulfonylcyclopropyl]pyrimidin-2-yl]phenyl]-3-pyridin-2-yl-urea]
10 | 147 | – | CC(C)CNC(=O)Nc1ccc(-c2nc(N3CCOC[C@@H]3C)cc(C3(S(=O)(=O)c4ccccc4C(F)(F)F)CC3)n2)cc1 [Example 10c, 1-[4-[4-[(3S)-3-methylmorpholin-4-yl]-6-[1-[2-(trifluoromethyl)phenyl]sulfonylcyclopropyl]pyrimidin-2-yl]phenyl]-3-(2-methylpropyl)urea]
11 | 43.2 | – | CC(C)NC(=O)Nc1ccc(-c2nc(N3CCOC[C@@H]3C)cc(C3(S(=O)(=O)c4ccccc4C(F)(F)F)CC3)n2)cc1 [Example 10d, 1-[4-[4-[(3S)-3-methylmorpholin-4-yl]-6-[1-[2-(trifluoromethyl)phenyl]sulfonylcyclopropyl]pyrimidin-2-yl]phenyl]-3-propan-2-yl-urea]
12 | 6.91 | – | CCNC(=O)Nc1ccc(-c2nc(N3CCOC[C@@H]3C)cc(C3(S(=O)(=O)c4ccccc4C(F)(F)F)CC3)n2)cc1 [Example 10e, 1-ethyl-3-[4-[4-[(3S)-3-methylmorpholin-4-yl]-6-[1-[2-(trifluoromethyl)phenyl]sulfonylcyclopropyl]pyrimidin-2-yl]phenyl]urea]
13 | 174 | – | C[C@H]1COCCN1c1cc(C2(S(=O)(=O)c3ccccc3C(F)(F)F)CC2)nc(-c2ccc(NC(=O)NCCN(C)C)cc2)n1 [Example 10f, 3-(2-dimethylaminomethyl)-1-[4-[4-[(3S)-3-methylmorpholin-4-yl]-6-[1-[2-(trifluoromethyl)phenyl]sulfonylcyclopropyl]pyrimidin-2-yl]phenyl]urea]
14 | 1.56 | – | C[C@H]1COCCN1c1cc(C2(S(=O)(=O)c3ccccc3C(F)(F)F)CC2)nc(-c2ccc(NC(=O)NCCO)cc2)n1 [Example 10g]
15 | 26.8 | – | CCCNC(=O)Nc1ccc(-c2nc(N3CCOC[C@@H]3C)cc(C3(S(=O)(=O)c4ccccc4C(F)(F)F)CC3)n2)cc1 [Example 10h, 3-[4-[4-[(3S)-3-methylmorpholin-4-yl]-6-[1-[2-(trifluoromethyl)phenyl]sulfonylcyclopropyl]pyrimidin-2-yl]phenyl]-1-propyl-urea]
16 | 5.91 | – | CNC(=O)Nc1ccc(-c2nc(N3CCOC[C@@H]3C)cc(C3(S(=O)(=O)c4ccccc4C(F)(F)F)CC3)n2)cc1 [Example 10i, 3-methyl-1-[4-[4-[(3S)-3-methylmorpholin-4-yl]-6-[1-[2-(trifluoromethyl)phenyl]sulfonylcyclopropyl]pyrimidin-2-yl]phenyl]urea]

Row | IC50 [1] [nM] | IC50 [2] [nM] | Structure (SMILES)
17 | 110 | – | C[C@H]1COCCN1c1cc(C2(S(=O)(=O)c3ccccc3C(F)(F)F)CC2)nc(-c2ccc(NC(=O)Nc3ccc(C(F)(F)F)cc3)cc2)n1 [Example 10j, 1-[4-[4-[(3S)-3-methylmorpholin-4-yl]-6-[1-[2-(trifluoromethyl)phenyl]sulfonylcyclopropyl]pyrimidin-2-yl]phenyl]-3-[4-(trifluoromethyl)phenyl]urea]
18 | 50.2 | – | C[C@H]1COCCN1c1cc(C2(S(=O)(=O)c3ccccc3C(F)(F)F)CC2)nc(-c2ccc(NC(=O)NC(C)(C)CO)cc2)n1 [Example 10k, 3-(1-hydroxy-2-methyl-propan-2-yl)-1-[4-[4-[(3S)-3-methylmorpholin-4-yl]-6-[1-[2-(trifluoromethyl)phenyl]sulfonylcyclopropyl]pyrimidin-2-yl]phenyl]urea]
19 | 18.3 | – | C[C@H]1COCCN1c1cc(C2(S(=O)(=O)c3ccccc3C(F)(F)F)CC2)nc(-c2ccc(NC(=O)NCCCO)cc2)n1 [Example 10l, 3-(3-hydroxypropyl)-1-[4-[4-[(3S)-3-methylmorpholin-4-yl]-6-[1-[2-(trifluoromethyl)phenyl]sulfonylcyclopropyl]pyrimidin-2-yl]phenyl]urea]
20 | 4.97 | – | C[C@H]1COCCN1c1cc(C2(S(=O)(=O)c3ccccc3C(F)(F)F)CC2)nc(-c2ccc(NC(=O)Nc3cnn(C)c3)cc2)n1 [Example 10m, 1-[4-[4-[(3S)-3-methylmorpholin-4-yl]-6-[1-[2-(trifluoromethyl)phenyl]sulfonylcyclopropyl]pyrimidin-2-yl]phenyl]-3-(1-methylpyrazol-4-yl)urea]
21 | 1.65 | – | CCS(=O)(=O)C1(c2cc(N3CCOC[C@@H]3C)nc(-c3ccc(NC(=O)NC4CC4)cc3)n2)CC1 [Example 11, 3-Cyclopropyl-1-[4-[4-(1-ethylsulfonylcyclopropyl)-6-[(3S)-3-methylmorpholin-4-yl]pyrimidin-2-yl]phenyl]urea]
22 | 4.18 | 5.9 | CCS(=O)(=O)C1(c2cc(N3CCOC[C@@H]3C)nc(-c3ccc(NC(=O)NC)cc3)n2)CC1 [Example 11a, 1-[4-[4-(1-ethylsulfonylcyclopropyl)-6-[(3S)-3-methylmorpholin-4-yl]pyrimidin-2-yl]phenyl]-3-methyl-urea]
23 | 3.33 | – | CCNC(=O)Nc1ccc(-c2nc(N3CCOC[C@@H]3C)cc(C3(S(=O)(=O)CC)CC3)n2)cc1 [Example 11b, 1-ethyl-3-[4-[4-(1-ethylsulfonylcyclopropyl)-6-[(3S)-3-methylmorpholin-4-yl]pyrimidin-2-yl]phenyl]urea]
24 | 24.7 | – | CCS(=O)(=O)C1(c2cc(N3CCOC[C@@H]3C)nc(-c3ccc(NC(=O)NC(C)C)cc3)n2)CC1 [Example 11c, 1-[4-[4-(1-ethylsulfonylcyclopropyl)-6-[(3S)-3-methylmorpholin-4-yl]pyrimidin-2-yl]phenyl]-3-propan-2-yl-urea]
25 | 6.42 | – | CCS(=O)(=O)C1(c2cc(N3CCOC[C@@H]3C)nc(-c3ccc(NC(=O)NC4CCC4)cc3)n2)CC1 [Example 11d, 3-cyclobutyl-1-[4-[4-(1-ethylsulfonylcyclopropyl)-6-[(3S)-3-methylmorpholin-4-yl]pyrimidin-2-yl]phenyl]urea]
26 | 1.35 | 1.97 | CCS(=O)(=O)C1(c2cc(N3CCOC[C@@H]3C)nc(-c3ccc(NC(=O)NCCO)cc3)n2)CC1 [Example 11e, 1-[4-[4-(1-ethylsulfonylcyclopropyl)-6-[(3S)-3-methylmorpholin-4-yl]pyrimidin-2-yl]phenyl]-3-(2-hydroxyethyl)urea]
27 | 3.37 | – | CCS(=O)(=O)C1(c2cc(N3CCOC[C@@H]3C)nc(-c3ccc(NC(=O)NC(C)(C)CO)cc3)n2)CC1 [Example 11f, 1-[4-[4-(1-ethylsulfonylcyclopropyl)-6-[(3S)-3-methylmorpholin-4-yl]pyrimidin-2-yl]phenyl]-3-(1-hydroxy-2-methyl-propan-2-yl)urea]
28 | 313 | – | CCS(=O)(=O)C1(c2cc(N3CCOC[C@@H]3C)nc(-c3ccc(NC(=O)NCCN(C)C)cc3)n2)CC1 [Example 11g, 3-(2-dimethylaminomethyl)-1-[4-[4-(1-ethylsulfonylcyclopropyl)-6-[(3S)-3-methylmorpholin-4-yl]pyrimidin-2-yl]phenyl]urea]
29 | 9.13 | – | CCCNC(=O)Nc1ccc(-c2nc(N3CCOC[C@@H]3C)cc(C3(S(=O)(=O)CC)CC3)n2)cc1 [Example 11h, 3-[4-[4-(1-ethylsulfonylcyclopropyl)-6-[(3S)-3-methylmorpholin-4-yl]pyrimidin-2-yl]phenyl]-1-propyl-urea]
30 | 29.4 | – | CCS(=O)(=O)C1(c2cc(N3CCOC[C@@H]3C)nc(-c3ccc(NC(=O)NCC(C)C)cc3)n2)CC1 [Example 11i, 1-[4-[4-(1-ethylsulfonylcyclopropyl)-6-[(3S)-3-methylmorpholin-4-yl]pyrimidin-2-yl]phenyl]-3-(2-methylpropyl)urea]
31 | 12.2 | – | CCS(=O)(=O)C1(c2cc(N3CCOC[C@@H]3C)nc(-c3ccc(NC(=O)NCCCO)cc3)n2)CC1 [Example 11j, 1-[4-[4-(1-ethylsulfonylcyclopropyl)-6-[(3S)-3-methylmorpholin-4-yl]pyrimidin-2-yl]phenyl]-3-(3-hydroxypropyl)urea]
32 | 3.32 | – | CCS(=O)(=O)C1(c2cc(N3CCOC[C@@H]3C)nc(-c3ccc(NC(=O)Nc4ccc(C(F)(F)F)cc4)cc3)n2)CC1 [Example 11k, 1-[4-[4-(1-ethylsulfonylcyclopropyl)-6-[(3S)-3-methylmorpholin-4-yl]pyrimidin-2-yl]phenyl]-3-[4-(trifluoromethyl)phenyl]urea]
